The results in this text go back to patent US7067538B2, “MCP-1 receptor antagonists and methods of use thereof” (Warner-Lambert Company, LLC, priority 2002, dated 2006).

Molecules are shown by their SMILES. Like-named read-outs stand apart in the source and are kept apart here. Bounds are passed on as bounds.

The nature of data set [1]: Plasma stability in rat plasma and acidified rat plasma (LC/MS). Conditions: 1 μg/mL, 1 hour at room temperature or 37° C. It is filed as in vitro ADME. The method, then: Plasma stability studies were conducted on (Di-p-tolyl-methanesulfonyl)-acetic acid methyl ester and [bis-(4-chloro-phenyl)-methanesulfonyl]-acetic acid methyl ester. Briefly, these compounds (at a final concentration of 1 μg/mL) were separately inclubated in rat plasma and acidified rat plasma for 1 hour at room temperature or 37° C.

Data set [2] is described as follows: Pharmacokinetics in rats after intravenous infusion and oral gavage. It is filed as in vivo. The method, then: The compound of Example 4, 3-[Bis-(4-chloro-phenyl)-methanesulfonyl]-1,1,1-trifluoro-propan-2-one, was administered to rats via a 5-minute intravenous infusion at 0.175 mg/mL (solution in 5% DMA/95% Tris base (50 mM in water)) and oral gavage at 0.35 mg/mL (suspension in 5% (w/v) PEG 200/95% (w/v) methylcellulose (0.5%)). Following intravenous administration of a 0.5 mg/kg dose to rats, the systemic clearance was about 0.06 mL/min/kg and the volume of distribution was about 0.2 L/kg. […] Following a 1 mg/kg oral dose, the compound of Example 4 was absorbed in rats with mean peak plasma levels of 6 μg/mL occurring approximately 2.5 hours after dosing. Based on the ratio of the dose-normalized area under the plasma concentration-time curve from 0 to 96 hour after oral and intravenous doses, the absolute oral bioavailability averaged about 100%. […]

Data set [3] relates to MCP-1 response in THP-1 cells. Briefly: Calcium flux in THP-1 cells stimulated with human MCP-1 (FLIPR). Type of data set: cell-based. The conditions noted are these: read-out: Calcium Flux IC50. How it is done: Compounds of were evaluated for their effect on calcium flux using methodology known in the art, e.g., Neote et al., Cell 1993, 72:415–425. Briefly, THP-1 cells were incubated with the fluorescence dye FLUO-4 for 1 hour, the cells were washed after this loading period, resuspended in HANKs buffer, and loaded into a 384-well plate. The cells were then incubated in the presence of a compound of Example 1–12, 14, 18, 22–23, 27–28, 30, or [bis-(4-chloro-phenyl)-methanesulfonyl]-acetic acid methyl ester. After a 30-minute incubation period, the cells were stimulated with 33 nM human MCP-1 and the calcium flux response recorded and quantified with a FLIPR^384® (384-well Fluorometric Imaging Plate Reader) ([…], Sunnyvale, Calif.). The IC50's (μM) of the inhibition of the maximal MCP-1 response are set out in Table 1.
In general terms: Calcium flux is commonly read through the fluorescence of an indicator in the cells.

The target in data set [4] is T1, MCP-1 receptor (300-19 cell membranes) (Homo sapiens, UniProt P41597).
T1 construct: host or cells: 300-19 cells (membrane preparation)
T1 sequence (P41597 whole entry): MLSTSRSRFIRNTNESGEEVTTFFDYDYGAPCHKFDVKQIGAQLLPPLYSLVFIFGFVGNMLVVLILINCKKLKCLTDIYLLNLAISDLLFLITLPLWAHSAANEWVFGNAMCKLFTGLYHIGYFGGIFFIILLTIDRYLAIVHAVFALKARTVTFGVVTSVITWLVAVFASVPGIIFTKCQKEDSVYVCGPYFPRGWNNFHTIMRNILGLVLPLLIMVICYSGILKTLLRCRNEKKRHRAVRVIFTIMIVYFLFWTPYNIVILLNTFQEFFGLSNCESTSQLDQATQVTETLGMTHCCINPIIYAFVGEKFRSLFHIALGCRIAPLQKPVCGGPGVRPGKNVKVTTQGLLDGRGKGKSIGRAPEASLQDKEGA
Description: Inhibition of binding of 125I-MCP-1 to 300-19 cell membranes. The method, then:
Compounds were also assayed for their ability to inhibit the binding of radiolabeled MCP-1 to cell membranes. The materials and methods are set out below.
Membrane Preparation. 300-19 cells were harvested by centrifugation and washed with PBS (Dulbecco's phosphate-buffered saline w/o Ca and Mg). Cells were frozen at −80° C. overnight then resuspensed in ice cold lysis buffer (5 mM HEPES, 2 mM EDTA, 10 μg/mL of leupeptin, aprotinin, and chymostatin, and 200 μg/mL PMSF). The cell suspension was centrifuged at 1,000 rpm for 10 minutes and the supernatant was transferred and centrifuged at 14,000 rpm for 45 minutes at 4° C. then discarded. The resulting pellet was resuspended in stock buffer (10 mM HEPES, 300 mM sucrose, 20 μg/mL of leupeptin, aprotinin, and chymostatin, and 200 μg/mL PMSF), aliquoted, and frozen at −80° C. until use. Typical binding assays used 1.0 μg/well protein.
Prepared membranes were resuspended in binding buffer (50 mM Tris, 10 mM MgCl2, 1 mM EDTA pH 7.4) at 10 μg/mL protein. Membranes (1.0 μg/well) were incubated with ^125I-MCP-1 (0.15 nM) in the absence or presence of unlabeled chemokine (465 nM) or a compound of Examples 1–11, 14, 16, 19, 22, 27–30, 33–34, or [bis-(4-chloro-phenyl)-methanesulfonyl]-acetic acid methyl ester (0.001 μM–40 μM) for 3 hours at room temperature in a 96-well plate (total volume 250 μL). The reaction was terminated by filtration using a 96-well plate harvester (Packard Filtermate 196 Harvester). Filters (Packard GF/C) were prewet with 0.3% PEI containing 0.5% BSA and washed 5 times with wash buffer (DPBS, 0.3 MnCl2, and 0.25% BSA) prior to reaction termination. After terminating the reaction, filters were washed 6 times with wash buffer, and allowed to dry overnight. Scintillation fluid (Packard's Micro Scint 20) was added to each well and radioactivity bound was determined by liquid scintillation spectrometry. Nonspecific binding was determined in the presence of 465 nM unlabeled MCP-1. The IC50's (μM) of the inhibition of the binding of the iodinated MCP-1 are set out in Table 2.

[5] abbreviates: 0.5 h, THP-1 cells, 30-minute incubation, stimulated with 33 nM human MCP-1, inhibition of the maximal MCP-1 response.
The mark [6] stands for this setting: 300-19 cell membranes 1.0 μg/well, 125I-MCP-1 0.15 nM, 3 hours at room temperature, read-out: IC50 of the inhibition of the binding of the iodinated MCP-1.

With `COC(=O)CS(=O)(=O)C(c1ccc(C)cc1)c1ccc(C)cc1` [(Di-p-tolyl-methanesulfonyl)-acetic acid methyl ester, reference compound], the “compound remaining after incubation in plasma” value in data set [1] is “below the lower limit of quantitation”. The “plasma concentrations after intravenous or oral administration” value in data set [2] (rats, 1 mg/kg intravenous infusion or 5 mg/kg oral gavage, LC/MS) is reported as “below the lower limit of quantitation”.

By melting point is commonly meant the temperature, or range, at which the solid turns liquid. The IC50 is the concentration that gives 50% inhibition. `CC(=O)CS(=O)(=O)C(c1ccc(Cl)cc1)c1ccc(Cl)cc1` [Example 1, 1-[Bis-(4-chloro-phenyl)-methanesulfonyl]-propan-2-one]: the melting point fell in the range of 114 to 115 °C. Besides, the IC50 in data set [3] (Homo sapiens, THP-1, 0.5 h) was 2200 nM. The IC50 in data set [4] turned out to be 1150 nM.

Regarding `O=C(CBr)CS(=O)(=O)C(c1ccc(Cl)cc1)c1ccc(Cl)cc1` [Example 3, 1-[Bis-(4-chloro-phenyl)-methanesulfonyl]-3-bromo-propan-2-one], the melting point is 122 to 123 °C. The half-inhibitory concentration (IC50) in data set [3] (setting [5]) worked out at 1120 nM. For the same molecule, the IC50 in data set [4] (setting [6]) came to 165 nM.

What is called bioavailability is dose-corrected exposure relative to a reference, in per cent. Broadly, the half-life is how long it takes for the measured level to halve. High values mean slow decline, low ones rapid decline. The molecule `O=C(CS(=O)(=O)C(c1ccc(Cl)cc1)c1ccc(Cl)cc1)C(F)(F)F` [Example 4, 3-[Bis-(4-chloro-phenyl)-methanesulfonyl]-1,1,1-trifluoro-propan-2-one] gave a melting point of 60 to 62 °C. In addition, in data set [2] (rat, in vivo), the bioavailability is approximately 100% and the half-life is approximately 47 h. Besides, in data set [2] (rat, in vivo, iv, 0.5 mg/kg), the Vd was approximately 0.2 L/kg and the clearance is approximately 0.06 mL/min/kg. Besides, in data set [2] (rat, in vivo, po, 1 mg/kg), the “mean peak plasma levels” value came to 6 µg/mL and the “time of peak plasma levels after dosing” value is recorded as “approximately 2.5 hours”. The IC50 in data set [3] (setting [5]) was determined as 495 nM. The IC50 in data set [4] (setting [6]) is 175 nM.

The molecule `O=C(CS(=O)(=O)C(c1ccc(Cl)cc1)c1ccc(Cl)cc1)c1ccco1` [Example 5, 2-[Bis-(4-chloro-phenyl)-methanesulfonyl]-1-furan-2-yl-ethanone] displayed a melting point of 138 to 139 °C. The concentration for half-maximal inhibition (IC50) in data set [3] (setting [5]) worked out at 7250 nM. For the same molecule, the IC50 in data set [4] (setting [6]) is 2550 nM.

Consider `O=C(CF)CS(=O)(=O)C(c1ccc(Cl)cc1)c1ccc(Cl)cc1` [Example 7, 3-[Bis-(4-chloro-phenyl)-methanesulfonyl]-1-fluoro-propan-2-one], for which the melting point lay in the range of 55 to 58 °C. In data set [2] (rat, in vivo), this molecule showed a bioavailability of less than 10% and a half-life of 1.5 h. The “decrease in concentrations within 2 hours after dosing” value in data set [2] (rat, in vivo, iv, 1 mg/kg) is on record as more than 100 fold. In addition, in data set [2] (rat, in vivo, po, 5 mg/kg), the “mean peak plasma levels” value amounted to 0.359 µg/mL, the “time for which plasma concentrations were measurable after dosing” value was determined as 4 h and the “time of peak plasma levels after dosing” value amounted to 15 min. Besides, in data set [3] (setting [5]), the IC50 is 423 nM. The IC50 in data set [4] (setting [6]) is 101 nM.

In data set [2] (rat, in vivo), `O=C(CS(=O)(=O)C(c1ccc(Cl)cc1)c1ccc(Cl)cc1)C(F)F` [Example 8, 3-[Bis-(4-chloro-phenyl)-methanesulfonyl]-1,1-difluoro-propan-2-one] showed a bioavailability of approximately 43% and a half-life of 7 h. In data set [2] (rat, in vivo, iv, 1 mg/kg), this molecule gave a Vd of 0.28 L/kg and a clearance of 0.75 mL/min/kg. For the same molecule, in data set [2] (rat, in vivo, po, 5 mg/kg), the “mean peak plasma levels” value is on record as “about 7 μg/mL” and the “time of peak plasma levels after dosing” value lay within 30 to 60 min. Moreover, the IC50 in data set [3] (setting [5]) was 108 nM. In addition, the IC50 in data set [4] (setting [6]) was found to be 88 nM.

Consider `O=C(Cc1ccccc1)CS(=O)(=O)C(c1ccc(Cl)cc1)c1ccc(Cl)cc1` [Example 9, 1-[Bis-(4-chloro-phenyl)-methanesulfonyl]-3-phenyl-propan-2-one], for which the melting point fell in the range of 54 to 56 °C. In addition, in data set [3] (setting [5]), the IC50 was determined as 2900 nM. The IC50 in data set [4] (setting [6]) was determined as 6300 nM.

The molecule `O=C(COc1ccccc1)CS(=O)(=O)C(c1ccc(Cl)cc1)c1ccc(Cl)cc1` [Example 10, 1-[Bis-(4-chloro-phenyl)-methanesulfonyl]-3-phenoxy-propan-2-one] registered a melting point of 110 to 112 °C. For the same molecule, the IC50 in data set [3] (setting [5]) was found to be 984 nM. In data set [4] (setting [6]), the IC50 came to 3450 nM.

As to `COc1ccc(OCC(=O)CS(=O)(=O)C(c2ccc(Cl)cc2)c2ccc(Cl)cc2)cc1` [Example 11, 1-[Bis-(4-chloro-phenyl)-methanesulfonyl]-3-(4-methoxy-phenoxy)-propan-2-one], the melting point was in the range of 116 to 117 °C. In addition, in data set [3] (setting [5]), the IC50 turned out to be 4750 nM. In data set [4] (setting [6]), the IC50 worked out at 3400 nM.

As to `COCC(=O)CS(=O)(=O)C(c1ccc(Cl)cc1)c1ccc(Cl)cc1` [Example 14, 1-[Bis-(4-chloro-phenyl)-methanesulfonyl]-3-methoxy-propan-2-one], the melting point lay within 124 to 125 °C. Moreover, in data set [3] (Homo sapiens, THP-1, 0.5 h), the IC50 came to 3900 nM. In data set [4], the IC50 turned out to be 1350 nM.

For the molecule `COC(=O)CC(=O)CS(=O)(=O)C(c1ccc(Cl)cc1)c1ccc(Cl)cc1` [Example 22, 4-[Bis-(4-chloro-phenyl)-methanesulfonyl]-3-oxo-butyric acid methyl ester], the melting point was in the range of 76 to 78 °C. Moreover, the half-maximal inhibitory concentration (IC50) in data set [3] (setting [5]) amounted to 2470 nM. For the same molecule, the IC50 in data set [4] (setting [6]) turned out to be 1270 nM.

The molecule `O=C(CS(=O)(=O)Cc1ccccc1)CS(=O)(=O)C(c1ccc(Cl)cc1)c1ccc(Cl)cc1` [Example 27, 1-[Bis-(4-chloro-phenyl)-methanesulfonyl]-3-phenylmethanesulfonyl-propan-2-one] returned a melting point of 72 to 90 °C. Also, the IC50 in data set [3] (setting [5]) is 6520 nM. Further, in data set [4] (setting [6]), the half-inhibitory concentration (IC50) is 2700 nM.

Turning to `O=S(=O)(CC(O)(O)C(F)(F)F)C(c1ccc(F)cc1)c1ccc(F)cc1` [Example 28, 3-[Bis(4-fluorophenyl)methanesulfonyl]-1,1,1-trifluoropropane-2,2-diol], the IC50 was determined as 417 nM in data set [3] (Homo sapiens, THP-1, 0.5 h) and 210 nM in data set [4].

`O=S(=O)(CC(O)(O)C(F)(F)F)C(c1ccc(Cl)cc1)c1ccc(Cl)c(Cl)c1` (centres unmarked) [Example 30, 3-[(4-Chlorophenyl)-(3,4-dichlorophenyl)methanesulfonyl]-1,1,1-trifluoropropane-2,2-diol]: the IC50 in data set [3] (setting [5]) came to 393 nM; in data set [4] (setting [6]) it was 77 nM.

In the case of `COC(=O)CS(=O)(=O)C(c1ccc(Cl)cc1)c1ccc(Cl)cc1` [[Bis-(4-chloro-phenyl)-methanesulfonyl]-acetic acid methyl ester, reference compound], in data set [1], the “compound remaining after incubation in plasma” value is listed as “below the lower limit of quantitation”. For the same molecule, the IC50 amounted to 150 nM in data set [3] (Homo sapiens, THP-1, 0.5 h) and 7320 nM in data set [4].
